Experimental data taken from the NIST ThermoML archive (doi:10.1021/je200050q).
± gives the expanded uncertainty stated by the source.

Experiment: activity coefficient (dimensionless); of the first substance listed, at infinite dilution; xn = mol fraction of the nth substance listed
Details: 101 kPa, Liquid, Chromatography, x1 = 0

Structure (SMILES) | activity coefficient (303.15 K) | activity coefficient (313.15 K) | activity coefficient (323.15 K) | activity coefficient (333.15 K) | activity coefficient (343.15 K) | activity coefficient (353.15 K) | activity coefficient (363.15 K)
Cc1cccc(C)c1 [1,3-dimethylbenzene] + CCCCn1cc[n+](C)c1.O=[N+]([O-])[O-] | 5.42 ± 0.3 | 5.47 ± 0.3 | 5.5 ± 0.3 | 5.55 ± 0.31 | 5.57 ± 0.31 | 5.62 ± 0.31 | 5.61 ± 0.31
CC#N [acetonitrile] + CCCCn1cc[n+](C)c1.O=[N+]([O-])[O-] | 0.6 ± 0.035 | 0.605 ± 0.035 | 0.615 ± 0.035 | 0.62 ± 0.035 | 0.626 ± 0.036 | 0.63 ± 0.036 | 0.644 ± 0.036
CCCCCCC [heptane] + CCCCn1cc[n+](C)c1.O=[N+]([O-])[O-] | 105 ± 5.9 | 97.1 ± 5.4 | 89.9 ± 5 | 83.6 ± 4.7 | 78.1 ± 4.4 | 73.2 ± 4.1 | 68.9 ± 3.8
Cc1ccccc1C [1,2-dimethylbenzene] + CCCCn1cc[n+](C)c1.O=[N+]([O-])[O-] | 4.31 ± 0.24 | 4.38 ± 0.24 | 4.44 ± 0.25 | 4.49 ± 0.25 | 4.54 ± 0.25 | 4.58 ± 0.25 | 4.63 ± 0.26
CCCCCCCCC [nonane] + CCCCn1cc[n+](C)c1.O=[N+]([O-])[O-] | 263 ± 15 | 238 ± 13 | 218 ± 12 | 200 ± 11 | 184 ± 10 | 171 ± 9.6 | 159 ± 8.9
ClC(Cl)(Cl)Cl [tetrachloromethane] + CCCCn1cc[n+](C)c1.O=[N+]([O-])[O-] | 2.09 ± 0.12 | 2.17 ± 0.12 | 2.4 ± 0.13 | 2.52 ± 0.14 | 2.65 ± 0.15 | 2.81 ± 0.15 | 2.83 ± 0.16
Cc1ccc(C)cc1 [1,4-dimethylbenzene] + CCCCn1cc[n+](C)c1.O=[N+]([O-])[O-] | 5.06 ± 0.28 | 5.17 ± 0.29 | 5.16 ± 0.29 | 5.22 ± 0.29 | 5.22 ± 0.29 | 5.24 ± 0.29 | 5.26 ± 0.29
CCCCCCCC [octane] + CCCCn1cc[n+](C)c1.O=[N+]([O-])[O-] | 168 ± 9.4 | 154 ± 8.6 | 141 ± 7.9 | 131 ± 7.3 | 121 ± 6.8 | 113 ± 6.3 | 106 ± 5.9
ClCCl [dichloromethane] + CCCCn1cc[n+](C)c1.O=[N+]([O-])[O-] | 0.464 ± 0.031 | 0.491 ± 0.032 | 0.526 ± 0.033 | 0.552 ± 0.033 | 0.579 ± 0.034 | 0.602 ± 0.035 | 0.64 ± 0.036
C1CCCCC1 [cyclohexane] + CCCCn1cc[n+](C)c1.O=[N+]([O-])[O-] | 29.8 ± 1.7 | 27.6 ± 1.5 | 25.6 ± 1.4 | 23.9 ± 1.3 | 22.4 ± 1.2 | 21.1 ± 1.2 | 19.9 ± 1.1
CCOC(C)=O [ethyl acetate] + CCCCn1cc[n+](C)c1.O=[N+]([O-])[O-] | 2.93 ± 0.16 | 2.98 ± 0.17 | 3.01 ± 0.17 | 3.04 ± 0.17 | 3.07 ± 0.17 | 3.18 ± 0.18 | 3.25 ± 0.18
Cc1ccccc1 [toluene] + CCCCn1cc[n+](C)c1.O=[N+]([O-])[O-] | 3.09 ± 0.17 | 3.15 ± 0.17 | 3.19 ± 0.18 | 3.24 ± 0.18 | 3.29 ± 0.18 | 3.33 ± 0.18 | 3.37 ± 0.19
CCCCCC [hexane] + CCCCn1cc[n+](C)c1.O=[N+]([O-])[O-] | 63.9 ± 3.6 | 58.1 ± 3.2 | 53.1 ± 3 | 48.8 ± 2.7 | 45.1 ± 2.5 | 41.8 ± 2.3 | 39 ± 2.2
ClC(Cl)Cl [trichloromethane] + CCCCn1cc[n+](C)c1.O=[N+]([O-])[O-] | 0.28 ± 0.028 | 0.316 ± 0.029 | 0.334 ± 0.029 | 0.39 ± 0.03 | 0.415 ± 0.03 | 0.445 ± 0.031 | 0.504 ± 0.032
CC1CCCCC1 [methylcyclohexane] + CCCCn1cc[n+](C)c1.O=[N+]([O-])[O-] | 45.3 ± 2.5 | 42.1 ± 2.4 | 39.4 ± 2.2 | 37 ± 2.1 | 34.9 ± 1.9 | 33 ± 1.8 | 31.2 ± 1.7
CO [methanol] + CCCCn1cc[n+](C)c1.O=[N+]([O-])[O-] | 0.322 ± 0.029 | 0.318 ± 0.029 | 0.315 ± 0.029 | 0.31 ± 0.029 | 0.307 ± 0.029 | 0.303 ± 0.029 | 0.302 ± 0.029
c1ccccc1 [benzene] + CCCCn1cc[n+](C)c1.O=[N+]([O-])[O-] | 1.85 ± 0.1 | 1.88 ± 0.1 | 1.91 ± 0.1 | 1.95 ± 0.11 | 2.01 ± 0.11 | 1.99 ± 0.11 | 2.02 ± 0.11
CCc1ccccc1 [ethylbenzene] + CCCCn1cc[n+](C)c1.O=[N+]([O-])[O-] | 5.53 ± 0.31 | 5.55 ± 0.31 | 5.56 ± 0.31 | 5.56 ± 0.31 | 5.6 ± 0.31 | 5.59 ± 0.31 | 5.61 ± 0.31
CC(C)=O [acetone] + CCCCn1cc[n+](C)c1.O=[N+]([O-])[O-] | 1.11 ± 0.055 | 1.12 ± 0.055 | 1.13 ± 0.056 | 1.16 ± 0.058 | 1.17 ± 0.059 | 1.23 ± 0.062 | 1.25 ± 0.063
CCCO [propan-1-ol] + CCCCn1cc[n+](C)c1.O=[N+]([O-])[O-] | 0.765 ± 0.04 | 0.732 ± 0.039 | 0.706 ± 0.038 | 0.687 ± 0.037 | 0.674 ± 0.037 | 0.662 ± 0.037 | 0.654 ± 0.036
CCO [ethanol] + CCCCn1cc[n+](C)c1.O=[N+]([O-])[O-] | 0.564 ± 0.034 | 0.543 ± 0.033 | 0.529 ± 0.033 | 0.52 ± 0.033 | 0.511 ± 0.032 | 0.508 ± 0.032 | 0.507 ± 0.032
